Results: paper PMC5063977 (The Journal of Biological Chemistry, 2016)

How the values were obtained:
Assay type in all cases: cell-based
RAMP2-CLR (AM1 receptor) [1] = target: T1, RAMP2-CLR (AM1 receptor) (Homo sapiens, UniProt O60895+Q16602); test: S. cerevisiae growth assay, GPA1/Gαq chimera, RAMP2 + CLR; conditions: percentage of yeast strain MMY11 (lacking GPA1); 24-h; mean ± S.E., n = 6
T1 construct: FLAG; expressed in transfected cells; host or cells: HEK-293 or HEK-293S cells, transient transfection, 1:1 RAMP:CLR
Method: FIGURE 7. […] Reporter gene activity was determined following 24-h stimulation. All data are expressed as percentage of the maximum response observed in yeast strain MMY11 and are means ± S.E. of n individual data sets. D, Bar chart showing the efficacy of each ligand for each RAMP-CLR combination at the Gαq chimera determined via application of the operational model of receptor agonism (Ref. [34] and Table 1). Data were determined as statistically different from the cognate ligand for each receptor (***, p < 0.001; ****, p < 0.0001) using one-way ANOVA with Bonferroni's post-test. E, signaling bias plots were calculated as ΔΔ(τ/Ka) values on a logarithmic scale for each ligand and for each chimera G protein for the three individual RAMP-CLR complexes.
General yeast procedures were performed as described previously ([22], [24]). […] Receptor signaling was measured using the yeast growth assay as described previously ([24]). […] A fluorescein signal was detected as an increase in fluorescence (excitation wavelength = 485 nm, emission wavelength = 535 nm) as a measure of growth. Different concentrations of ligand (0.01 nM–100 μM) were assayed using 96-well plates, and fluorescence was detected using a Tecan Infinite M200 microplate reader (Tecan Ultra Evolution, Reading, UK) or a Mithras LB 940 microplate reader (Berthold Technologies, Harpenden, UK) for 20 h. […]

RAMP2-CLR (AM1 receptor) [2] = target: T1, RAMP2-CLR (AM1 receptor); test: cAMP accumulation, HEK-293S cells, RAMP2 + CLR; conditions: HEK293S, untreated, percentage of maximal cAMP with 100 μM forskolin in presence of PTX, mean ± S.E., n = 5
Method: (§1) HEK-293 cells were transfected with FuGENE 6 (Roche Applied Science) in accordance with the manufacturer's instructions using a 1:3 (w:v) DNA:FuGENE ratio and a 1:1 ratio of RAMP to CLR. […] The transfected cell lines were grown for 24–48 h prior to assaying.
(§2) The transfected HEK-293 cells were washed in PBS, resuspended in stimulation buffer (PBS containing 0.1% BSA and 0.5 mM IBMX), and seeded at 2000 cells/well in 384-well white Optiplates. Ligands were added in the range of 1 pM to 1 mM, and cAMP accumulation was measured after 30 min of stimulation using a LANCE® cAMP detection kit (PerkinElmer Life Sciences). […] Plates were read using a Mithras LB 940 multimode microplate reader (Berthold Technologies). […] Values were converted to concentration using a cAMP standard curve performed in parallel.
Data analysis for cAMP assays was performed in GraphPad Prism 6.0f (San Diego, CA). […] These values were then used to quantify signaling bias as change in log (τ/Ka) relative to the natural cognate ligand for the respective receptor ([41]). […] Statistical differences were analyzed using one-way ANOVA or Student's t test as appropriate with post hoc Bonferroni's or Dunnett's multiple comparisons, and p < 0.05 was considered significant. […] To quantitate the ligand-dependent response in the yeast system, a strain lacking GPA1 (MMY11), grown in rich medium, was used as a standard ([72]). […]

RAMP3-CLR (AM2 receptor) = target: T2, RAMP3-CLR (AM2 receptor) (Homo sapiens, UniProt O60896+Q16602); test: cAMP accumulation, HEK-293 cells, RAMP3 + CLR; conditions: mean ± S.E.
T2 construct: FLAG; expressed in transfected cells; host or cells: HEK-293 or HEK-293S cells, transient transfection, 1:1 RAMP:CLR
Method: as §1, §2
Data analysis for cAMP assays was performed in GraphPad Prism 6.0f (San Diego, CA). Data were fitted to obtain concentration-response curves using either the three-parameter logistic equation (for pEC50 values) or the operational model for partial agonism ([34]) to obtain values of efficacy (log τ) and the equilibrium dissociation constant (log Ka). These values were then used to quantify signaling bias as change in log (τ/Ka) relative to the natural cognate ligand for the respective receptor ([41]). […] Statistical differences were analyzed using one-way ANOVA or Student's t test as appropriate with post hoc Bonferroni's or Dunnett's multiple comparisons, and p < 0.05 was considered significant. […] For RT-PCR, normalization to the internal standard GAPDH was performed to reduce variance and enable a comparison between different cell lines. To quantitate the ligand-dependent response in the yeast system, a strain lacking GPA1 (MMY11), grown in rich medium, was used as a standard ([72]). As GPA1 is not present in this strain, the Gβγ subunits are unregulated and free to signal, allowing us to determine the maximal response of our system. […] For the mammalian cell-based assays, data analysis was carried out as for the yeast curves. […]

T2 sequence (Q16602 23-461): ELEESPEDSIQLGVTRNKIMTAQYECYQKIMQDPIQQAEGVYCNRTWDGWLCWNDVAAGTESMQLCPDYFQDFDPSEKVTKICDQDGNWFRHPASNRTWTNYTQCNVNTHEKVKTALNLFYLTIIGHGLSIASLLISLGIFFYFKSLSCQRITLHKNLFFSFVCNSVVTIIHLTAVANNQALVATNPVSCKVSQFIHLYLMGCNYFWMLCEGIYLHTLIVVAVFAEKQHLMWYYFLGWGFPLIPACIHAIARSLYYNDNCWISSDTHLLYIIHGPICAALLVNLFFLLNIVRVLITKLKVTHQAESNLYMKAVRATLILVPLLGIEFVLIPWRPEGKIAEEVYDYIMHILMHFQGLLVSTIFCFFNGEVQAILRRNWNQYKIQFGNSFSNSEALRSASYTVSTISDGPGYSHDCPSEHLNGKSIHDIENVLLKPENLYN
T2 sequence (O60896 24-148): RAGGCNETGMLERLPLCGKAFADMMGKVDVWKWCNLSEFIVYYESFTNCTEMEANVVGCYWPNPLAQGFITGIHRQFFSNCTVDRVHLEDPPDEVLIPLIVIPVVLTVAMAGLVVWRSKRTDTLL
T1 sequence (Q16602 23-461): as the sequence (Q16602 23-461) above
T1 sequence (O60895 43-175): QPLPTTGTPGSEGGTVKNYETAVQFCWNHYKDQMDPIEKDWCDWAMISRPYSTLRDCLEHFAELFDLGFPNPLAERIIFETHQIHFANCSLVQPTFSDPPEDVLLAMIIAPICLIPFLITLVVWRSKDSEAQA

| Emax (RAMP2-CLR (AM1 receptor) [1]) | Emax (RAMP2-CLR (AM1 receptor) [2]) | Emax (RAMP3-CLR (AM2 receptor); HEK293, PTX treated (200 ng/ml, 16 h), percentage of maximal cAMP with 100 μM forskolin in presence of PTX, n = 7 (Table 3)) | Emax (RAMP3-CLR (AM2 receptor); HEK293, percentage of maximal cAMP with 100 μM forskolin, HEK-293, 30 min, n = 9 (Table 2)) | Emax (RAMP3-CLR (AM2 receptor); HEK293, untreated, percentage of maximal cAMP with 100 μM forskolin in presence of PTX, n = 8 (Table 3)) | Compound |
| --- | --- | --- | --- | --- | --- |
| 11.3 ± 1.3% | 40.3 ± 1.5% |  |  |  | CSCC[C@H](NC(=O)[C@H](CC(C)C)NC(=O)[C@H](CCC(N)=O)NC(=O)[C@H](Cc1c[nH]c2ccccc12)NC(=O)[C@H](CC(C)C)NC(=O)[C@H](CCCNC(=N)N)NC(=O)[C@H](Cc1c[nH]cn1)NC(=O)[C@H](CO)NC(=O)[C@H](CC(C)C)NC(=O)[C@H](CC(N)=O)NC(=O)[C@H](CCC(N)=O)NC(=O)[C@@H](NC(=O)[C@H](CCC(N)=O)NC(=O)[C@@H]1CSSC[C@H](NC(=O)CNC(=O)[C@@H](NC(=O)[C@H](CCCNC(=N)N)NC(=O)[C@H](CC(C)C)NC(=O)[C@H](CC(C)C)NC(=O)[C@H](CCC(N)=O)NC(=O)[C@H](C)NC(=O)[C@H](CCC(N)=O)NC(=O)[C@@H](N)[C@@H](C)O)C(C)C)C(=O)N[C@@H](C(C)C)C(=O)N[C@@H](CC(C)C)C(=O)NCC(=O)N[C@@H]([C@@H](C)O)C(=O)N1)C(C)C)C(=O)NCC(=O)N1CCC[C@H]1C(=O)N[C@@H](C)C(=O)NCC(=O)N[C@@H](CCCNC(=N)N)C(=O)N[C@@H](CCC(N)=O)C(=O)N[C@@H](CC(=O)O)C(=O)N[C@@H](CO)C(=O)N[C@@H](C)C(=O)N1CCC[C@H]1C(=O)N[C@H](C(=O)N[C@@H](CC(=O)O)C(=O)N1CCC[C@H]1C(=O)N[C@@H](CO)C(=O)N[C@@H](CO)C(=O)N1CCC[C@H]1C(=O)N[C@@H](Cc1c[nH]cn1)C(=O)N[C@@H](CO)C(=O)N[C@@H](Cc1ccc(O)cc1)C(N)=O)C(C)C [AM2, adrenomedullin 2] |
|  |  | 36 ± 2.2% | 32.1 ± 1.6% | 32 ± 1.5% | CC[C@H](C)[C@H](NC(=O)[C@H](CCC(N)=O)NC(=O)[C@H](Cc1c[nH]cn1)NC(=O)[C@H](C)NC(=O)[C@H](CC(C)C)NC(=O)[C@H](CCCCN)NC(=O)[C@H](CCC(N)=O)NC(=O)[C@@H](NC(=O)[C@@H](NC(=O)[C@@H]1CSSC[C@H](NC(=O)CNC(=O)[C@H](Cc2ccccc2)NC(=O)[C@H](CO)NC(=O)[C@H](CCCNC(=N)N)NC(=O)[C@H](CC(C)C)NC(=O)CNC(=O)[C@H](CCC(N)=O)NC(=O)[C@H](Cc2ccccc2)NC(=O)[C@H](CC(N)=O)NC(=O)[C@H](CC(N)=O)NC(=O)[C@H](CCSC)NC(=O)[C@H](CO)NC(=O)[C@H](CCC(N)=O)NC(=O)[C@H](CCCNC(=N)N)NC(=O)[C@@H](N)Cc2ccc(O)cc2)C(=O)N[C@@H](CCCNC(=N)N)C(=O)N[C@@H](Cc2ccccc2)C(=O)NCC(=O)N[C@@H]([C@@H](C)O)C(=O)N1)[C@@H](C)O)C(C)C)C(=O)N[C@@H](Cc1ccc(O)cc1)C(=O)N[C@@H](CCC(N)=O)C(=O)N[C@@H](Cc1ccccc1)C(=O)N[C@H](C(=O)N[C@@H](CC(=O)O)C(=O)N[C@@H](CCCCN)C(=O)N[C@@H](CC(=O)O)C(=O)N[C@@H](CCCCN)C(=O)N[C@@H](CC(=O)O)C(=O)N[C@@H](CC(N)=O)C(=O)N[C@H](C(=O)N[C@@H](C)C(=O)N1CCC[C@H]1C(=O)N[C@@H](CCCNC(=N)N)C(=O)N[C@@H](CO)C(=O)N[C@@H](CCCCN)C(=O)N[C@H](C(=O)N[C@@H](CO)C(=O)N1CCC[C@H]1C(=O)N[C@@H](CCC(N)=O)C(=O)NCC(=O)N[C@@H](Cc1ccc(O)cc1)C(N)=O)[C@@H](C)CC)C(C)C)[C@@H](C)O [AM, adrenomedullin] |
